Experimental data as given in patent US20040038950A1, “Pharmaceutical composition for treating IL-1 related diseases or disorders” (priority 2002, published 2004).

Assays:
[1] = system: (IL-1β)-induced iNOS mRNA; assay: (IL-1β)-induced iNOS gene expression in chondrocytes; assay type: cell-based, human; conditions: 10, 50, 100 μM with IL-1β, 72 hr
Description: (§1) Sixteen hours prior to a treatment, the complete culture medium was replaced with a serum-free medium. Chondrocyte alginate bead cultures were then treated with IL-1β ([…], (Calbiochem) and DHEA (0, 10, 50 or 100 μM) for 3 days.
(§2) Total RNA from chondrocytes was extracted using RNeasy Mini Kit (QIAGEN). Reverse transcription from 1 μg of total RNA was conducted using First Strand cDNA Synthesis Kit (MBI Fermentas) according to manufacturer's recommendation with random hexamers. The resulting cDNA was then amplified by polymerase chain reaction using AccuPower PCR Premix (Bioneer, Korea) in a final volume of 20 μl using three thermocycler temperatures (30 sec at […], 30 sec at 60° C., and 30 sec at […]). All reactions were determined to be in the linear range of amplification with the cycle number ranging from 14 to 30. The PCR products were analyzed by separation on a 2% agarose gel followed by ethidium bromide staining. Following electrophoresis, photographs were taken and analyzed using a densitometric program (TINA; Raytest Isotopenmeβgerate, Germany). Integrated density values for the genes in question were then normalized to the glyceraldehyde-3-phosphate dehydrogenase (GAPDH) values for a semiquantitative assessment. After normalizing with respect to GAPDH, percentage increase or decrease was determined. Each experiment was repeated at least three times. […]

[2] = system: (IL-1β)-induced MMP-1 mRNA; assay: (IL-1β)-induced MMP-1 mRNA expression in chondrocytes, RT-PCR; assay type: cell-based, human; conditions: 72 hr
Description: as §1, §2

[3] = system: MMP-1 mRNA; assay: RT-PCR of MMP-1 mRNA in chondrocytes; assay type: cell-based, human; conditions: 100 μM
Description: Chondrocytes were isolated from the knee joint of patient undergoing a knee replacement due to osteoarthritis. Cartilage was digested with 0.2% protease Type XIV (Sigma) for 1 hour, followed by 3-hour incubation with 0.2% collagenase Type IA (Sigma) at 37° C. Following the incubation, the undigested cartilage fragments were removed using a 70 μm Nylon sieve. Chondrocytes were washed with DPBS and maintained in monolayer culture for 7 days in Dulbecco's modified Eagle's medium (DMEM; Life Technologies Inc.) which contained 10% fetal bovine serum (FBS; Life Technologies), 100 units/ml penicillin-streptomycin (Life Technologies) and 25 μg/ml L-ascorbic acid (Sigma). All experiments were performed with primary or first passage cells. The preparation of chondrocytes in alginate beads was carried out with 4×10^6 cells per 1 ml of alginate. Alginate cultures were maintained for 7 days at 37° C., 5% CO2 and 95% humidity and incubated with various concentrations of DHEA (0, 10, 50 or 100 μM) for a varing period of time. DHEA was purchased from Sigma and used after dissolving either in ethanol or dimethyl sulfoxide (DMSO). After a desired incubation period, cells were harvested by solubilizing the alginate beads in citrate buffer (55 mM sodium citrate, 0.15 M NaCl, pH 7.0) for 10 min at 37° C. and by centrifugation (300 g, 5 min).
as §2

[4] = system: human chondrocyte; assay: Cell proliferation, [3H]thymidine assay in chondrocyte alginate bead culture; assay type: cell-based; conditions: 10-100 μM DHEA
Description: (§3) Chondrocytes were isolated from the knee joint of patient undergoing a knee replacement due to osteoarthritis. Cartilage was digested with 0.2% protease Type XIV (Sigma) for 1 hour, followed by 3-hour incubation with 0.2% collagenase Type IA (Sigma) at 37° C. Following the incubation, the undigested cartilage fragments were removed using a 70 μm Nylon sieve. Chondrocytes were washed with DPBS and maintained in monolayer culture for 7 days in Dulbecco's modified Eagle's medium (DMEM; Life Technologies Inc.) which contained 10% fetal bovine serum (FBS; Life Technologies), 100 units/ml penicillin-streptomycin (Life Technologies) and 25 μg/ml L-ascorbic acid (Sigma). All experiments were performed with primary or first passage cells. The preparation of chondrocytes in alginate beads was carried out with 4×10^6 cells per 1 ml of alginate. […]
(§4) For cell proliferation, [^3H]thymidine assay was performed on a 96-well plate (Nunc) with one alginate bead per well. […] After collecting the cells using a cell harvester (Wallac), [^3H]thymidine uptake was quantitated by measuring β emission on a β-counter (Wallac). […] The ^35SO4-labeled proteoglycan content was measured by a liquid scintillation counter (Wallac). The total cellular DNA was determined by Indole assay.

[5] = system: type II collagen mRNA; assay: Osteoarthritic rabbit model (ACLT), intraarticular injection, RT-PCR of type II collagen; assay type: in vivo; conditions: rabbit ACLT knee, intraarticular once a week for 5 weeks
Description: Mature New Zealand White rabbits underwent bilateral anterior cruciate ligament transection (ACLT). ACLT was performed using a medial arthrotomy method. Postoperatively the animals were permitted cage (60 cm×60 cm×40 cm) activity without immobilization. The right knees received via intraartiticular injection DHEA, DHEA-pyruvate or DHEA+HA, 4 weeks after ACLT and once a week for 5 weeks. The left knees received 0.3 ml of intraarticular injection with control solution (carrier solution). After 9 weeks from ACLT, the animas were sacrificed.
Synovium (entire tissue) around the infrapatellar fat pads and cartilage tissue from the femoral condyle and the tibial plateau were harvested. The subsequent experimental procedure was the same as described in Test Example IV.

[6] = system: human chondrocyte; assay: GAG assay (35SO4-labeled proteoglycan synthesis) in chondrocyte alginate culture; assay type: cell-based; conditions: DHEA present in chondrocyte cultures, same time period
Description: as §3, §4

[7] = system: (IL-1β)-induced Cox-2 gene expression; assay: (IL-1β)-induced Cox-2 gene expression in chondrocytes; assay type: cell-based, human; conditions: 10, 50, 100 μM with IL-1β, 72 hr
Description: as §1, §2

[8] = system: (IL-1β)-induced IL-6 gene expression; assay: (IL-1β)-induced IL-6 gene expression in chondrocytes; assay type: cell-based, human; conditions: 10, 50, 100 μM with IL-1β, 72 hr
Description: as §1, §2

C[C@]12CC[C@H](O)CC1=CC[C@@H]1[C@@H]2CC[C@]2(C)C(=O)CC[C@@H]12 [DHEA, dehyroepiandrosterone]
(IL-1β)-induced up-regulation of iNOS mRNA [1]: suppressed
(IL-1β)-induced up-regulation of MMP-1 mRNA, inhibition ([2]; 10 μM DHEA with IL-1β): 74%
(IL-1β)-induced up-regulation of MMP-1 mRNA, inhibition ([2]; 50 μM DHEA with IL-1β): 53%
MMP-1 level, inhibition ([3]; 72 hours): 48%
MMP-1 mRNA level, reduced by ([3]; after 24 hr): 43%
MMP-1 mRNA level, reduced by ([3]; after 48 hr): 35%
MMP-1 mRNA expression ([3]; after 72 hr): markly inhibited
effect on cell proliferation ([4]; after day 5): insignificant
cell proliferation ([4]; as early as day 3 of culture): slightly reduced
expression of type II collagen [5]: increased
rate of proteoglycan synthesis [6]: remained unchanged
(IL-1β)-induced Cox-2 gene expression [7]: no significantly change
(IL-1β)-induced IL-6 gene expression [8]: no significantly change
